Consider four compounds from US4347178A, “Compounds and methods of making” (Burroughs Wellcome Co., priority 1980, dated 1982).

Experiment [1] concerns anti-compound 2 sera and anti-compound 3 sera. Put plainly: RIA of bupropion using 125I-labeled bupropion competitors with anti-compound 2 sera and anti-compound 3 sera. Type of experiment: biochemical. The settings on record: for RIA sensitivity compared with the compound 10 system: substitution of 7 or 8 as competitor, anti-compound 2 and anti-compound 3 sera. The protocol: (§1) Samples of six standard solutions of bupropion in blank plasma having concentrations of 0.39 to 50 ng/ml) are pipetted (0.1 ml each) in duplicate into 12×75 mm plastic tubes. Duplicate non-specific binding (no antibody) and maximum binding tubes (no unlabeled bupropion) receive 0.1 ml blank plasma. Spiked plasma controls at several concentrations of (e.g., 1.0, 10.0, and 100 ng/ml) and plasma samples for assay (diluted into the standard range with blank plasma if necessary) are assayed in duplicate. After being placed in an ice bath, all tubes receive (in order) 0.2 ml ^3 H bupropion (416 pg. containing approximately 10^4 cpm) and 0.7 ml anti-bupropion serum (raised to a ring-functionalized immunogen according to the present invention) (at pre-determined dilutions such that approximately 40% of the ^3 H bupropion added is bound), both in assay buffer (0.05 M phosphate-bufferedisotonic saline, containing 0.01 M EDTA and 0.1% gelatin, pH 7.0). Non-specific binding tubes receive 0.7 ml assay buffer.) Following incubation either at 25° C. for 2 hours or overnight at 4° C., bound and free ^3 H bupropion are separated by incubation for 10 min at 0° C. with 0.5 ml ice-cold dextran-coated charcoal solution (0.25% dextran, 5 mg/ml charcoal, in assay buffer) followed by centrifugation for 10 minutes at 4° C. […] The supernatants, containing antibody-bound ^3 H bupropion are carefully decanted into liquid scintillation cocktail for quantitation of ^3 H. After counts (minus average non-specific binding cpm) are expressed as percentages of average maximum binding cpm, bupropion concentrations in plasma samples and spiked controls are read from a standard curve (log concentration vs percent average maximum binding).
RIA's have been run according to the method of Example X utilizing ^125 I labeled bupropion competitors of the present invention in conjunction with antisera obtained following immunization with immunogens of the present invention. […] Following the ethanol precipation of antibody-bound ^125 I-bupropion competitior at equilibrium, ^125 I in the protein pellets was quantified.

Experiment [2] has as its system anti-compound 1 sera. Put plainly: RIA of bupropion using compound 6 with anti-compound 1 sera. Type of experiment: biochemical. The protocol: as §1, with “7.0).” for “7.0). Non-specific binding tubes receive 0.7 ml assay buffer.) Following incubation either at 25° C. for 2 hours or overnight at 4° C., bound and free ^3 H bupropion are separated by incubation for 10 min at 0° C. with 0.5 ml ice-cold dextran-coated charcoal solution (0.25% dextran, 5 mg/ml charcoal, in assay buffer) followed by centrifugation for 10 minutes at 4° C.”, “binding). […]” for “binding).”

As to `CC(NC(C)(C)C)C(=O)c1ccc(OCC(=O)NCCc2ccc(O)c([125I])c2)c(Cl)c1` (stereo not drawn) [compound 7, α-t-Butylamino-3-chloro-4-carbomethoxypropiophenone-^125 I-tyramine amide], the “RIA sensitivity compared with the compound 10 system” value in experiment [1] was “approximately equal to that obtained with the compound 10 system”. `CC(NC(C)(C)C)C(=O)c1ccc(O)c([125I])c1` (stereo not drawn) [compound 9, ^125 I-α-t-Butylamino-3-iodo-4-hydroxypropiophenone]: the “RIA sensitivity relative to the compound 10 (3H bupropion) assay system” value in experiment [1] (in conjunction with either antisera (anti-compound 2 or anti-compound 3)) is reported as “approximately ten”. Take `CC(NC(C)(C)C)C(=O)c1ccc(CCCOC(=O)CCC(=O)NCCc2ccc(O)c([125I])c2)c(Cl)c1` (stereo not drawn) [compound 8, α-t-Butylamino-3-chloro-4-γ-hydroxypyropylpropiophenone-hemisuccinate-^125 I-tyramine amide]: the “RIA sensitivity compared with the compound 10 system” value in experiment [1] was “approximately equal to that obtained with the compound 10 system”.

With `CC(NC(C)(C)C)C(=NOCC(=O)NCCc1ccc(O)c([125I])c1)c1cccc(Cl)c1` (stereo not drawn) [compound 6, α-t-Butylamino-3-chloropropiophenone-carboxymethyloxime-^125 I-tyramine amide], the RIA sensitivity result in experiment [2] is listed as “least sensitive RIA”.
